Measured values from patent publication US12630719B2, “Fluorescent acridinium salts, synthesis thereof and use for detection of cardiolipin” (LATVIAN INSTITUTE OF ORGANIC SYNTHESIS, priority 2019, dated 2026).

Legend:
[1] = Photo-physical properties in aqueous HEPES buffer solution; format: physicochemical; conditions: aqueous HEPES buffer 20 mM, pH 7.4
Protocol: Photo-physical properties of I-1-I-5 was measured in aqueous HEPES [4-(2-hydroxyethyl)piperazine-1-ethanesulfonic acid] buffer solution (20 mM, pH 7.4); NAO bromide was used as reference compound. Similar to NAO, derivatives I-1-I-5 have absorption maxima at 494-498 nm, and emission maxima at 528-529 nm (Table 1). […] Moreover, the trimethylsilylpropyl substituent in position 10 improved PLQY up to 60.7% (I-5). […] The introduction of longer alkyl chains such as nonyl and dodecyl led to PLQY decrease.

[2] = Titration with cardiolipin, linear regression curve; format: binding
Protocol: (§1) Liposomes preparation. Vesicles were prepared by classic thin film method. […] Obtained large multilamellar liposomes were sonicated in a bath-type sonicator at room temperature for 30 min following by extrusion through a 100 nm polycarbonate filter for 21 times. The quality of the resulting small unilamellar vesicles was monitored by dynamic light scattering (DLS) technique. These stock solutions were diluted 5-fold to acquire 2nd stock solutions that were used in the fluorometric experiments.

[3] = Fluorescence intensity in the presence of DOPC liposomes without cardiolipin (selectivity); format: binding
Protocol: (§2) Besides, NAO fluorescence intensity loss during interaction of DOPC was detected at 5.6% level.
as §1

[4] = Fluorescence intensity on interaction with CL/DOPC liposomes; format: binding; conditions: for fluorescence intensity after interaction with CL/DOPC liposomes: CL/DOPC liposomes (3:1), end value of the drop; for fluorescence intensity before interaction with CL/DOPC liposomes: start value of the drop
Protocol: as §1

[5] = Stability of fluorescence during experiments; format: physicochemical; conditions: in 30 minutes
From the text: as §2

[6] = decrease of green fluorescence in the presence of CL; cited from earlier work

SMILES | Φ (PLQY, photoluminescence quantum yield) [1] | λabs [1] | λem [1] | linear slope of the titration curve [2] | fluorescence intensity drop in the presence of DOPC liposomes [3] | fluorescence intensity after interaction with CL/DOPC liposomes [4] | fluorescence intensity before interaction with CL/DOPC liposomes [4] | fluorescence intensity drop during experiments [5] | CL content that can be quantitatively analyzed [6]
C[n+]1c2cc(N3CCC3)ccc2cc2ccc(N3CCC3)cc21.[I-] [Compound I-1, 3,6-di(azetidin-1-yl)-10-methylacridin-10-ium iodide] | 59.9% | 497 nm | 529 nm |  |  |  |  |  | 
[2H]C([2H])([2H])[n+]1c2cc(N3CCC3)ccc2cc2ccc(N3CCC3)cc21.[I-] [Compound I-2, 3,6-di(azetidin-1-yl)-10-(methyl-d3)acridin-10-ium iodide] | 61.5% | 497 nm | 529 nm |  |  |  |  |  | 
CCCCCCCCC[n+]1c2cc(N3CCC3)ccc2cc2ccc(N3CCC3)cc21.[I-] [Compound I-3, 3,6-di(azetidin-1-yl)-10-nonylacridin-10-ium iodide] | 47.9% | 498 nm | 529 nm |  |  |  |  |  | 
CCCCCCCCCCCC[n+]1c2cc(N3CCC3)ccc2cc2ccc(N3CCC3)cc21.[I-] [Compound I-4, 3,6-di(azetidin-1-yl)-10-dodecylacridin-10-ium iodide] | 16.1% | 494 nm | 528 nm |  |  |  |  |  | 
C[Si](C)(C)CCC[n+]1c2cc(N3CCC3)ccc2cc2ccc(N3CCC3)cc21.[I-] [Compound I-5, 3,6-di(azetidin-1-yl)-10-(3-(trimethylsilyl)propyl)acridin-10-ium iodide] | 60.7% | 497 nm | 529 nm | −6259±250 | 7.7% | 6600 a.u. | 65800 a.u. | remaining the same | 
CCCCCCCCC[n+]1c2cc(N(C)C)ccc2cc2ccc(N(C)C)cc21 [NAO, 10-N-nonyl acridine orange, reference compound] | 15.5% | 498 nm | 528 nm | −1222±49 | 5.6% | 1260 a.u. | 13300 a.u. | 15.5% | 0.2 to 10 µM
